What was measured:
[1] = Superoxide dismutase (SOD) activity by ESR in xanthine and xanthine-oxidase system; format: biochemical
Procedure: (§1) In this example, free radical-scavenging ability was determined as an indicator of antioxidant action. Specifically, free radicals produced by xanthine oxidase were determined by 1,1-diphenyl-2-picrylhydrayil (DPPH, Aldrich). First, xanthine oxidase (Aldrich) was dissolved in 0.01 M phosphate buffer. Hypoxanthine was added to this solution, and the solution was warmed at 37° C. to generate free radicals. To this solution, the composition of Example 6 was added. Further, 0.1 M DPPH solution was added to determine absorbance at 520 nm. Superoxide dismutase (SOD) activity was also determined using Electron Spin Resonance (ESR) in xanthine and xanthine-odixase system. In both cases, vitamin E was used as a positive control.

[2] = DPPH radical scavenging test; format: biochemical; settings: Example 6 at a dose of 0.1 mg/ml; absorbance at 520 nm
Procedure: as §1

In the case of vitamin E [VitaminE], the SOD activity [1] was 90 units/g and the “free radical-scavenging ability (DPPH)” value [2] was 460 units/g.

From patent publication US20110151031A1, “COMPOSITIONS AND METHODS FOR UTILIZING THE SAME” (DBC, LLC, priority 2008, published 2011)
